How the values were obtained:
Type in all cases: cell-based
HL60 and K562 cells = experiment: TPA differentiation of blood cells, miR-182 qRT-PCR; conditions: TPA-treated blood cells
Experimental: (§1) HL60 cells (0.5×10^6 cells/ml) were differentiated either to neutrophils with 1.3% DMSO for 8 days or to macrophages with 16 nM tetradecanoyl phorbol acetate (TPA) for 3 days; K562 cells (0.5×10^6 cells/ml) to megakaryocytes with 16 nM phorbol myristate acetate (PMA) for 3 days or to erythrocytes with […] for 4 days. HL60 and K562 cells were grown in DMEM or RPMI-1640, respectively, supplemented with 10% (v/v) FBS. MCF-7 cells (10^6 cells/6 cm dish) were differentiated with 100 nM TPA for 3 days in Dulbecco's Modified Eagle Medium (DMEM) with 10% (v/v) fetal bovine serum (FBS) (Cunliffe et al., Cancer Res., 63:7158-66 (2003). The breast cancer lines and human mammary epithelial cells used in experiments shown in FIGS. 6 and 10, were cultured in media according to protocols from the American Type Culture Collection (ATCC®; Manassas, Va.) (www.atcc.org/).
Analysis of the miRNAs of the miR-183 cluster was conducted using qPCR using the TaqMan MicroRNA Assay from Applied Biosystems as per the manufacturer's instructions and normalized to RNU6B snRNA. Analysis of mRNA expression was carried out with qPCR using the SYBR Green master mix (Applied Biosystems, Foster City, Calif.) according to the manufacture's manual and the BioRad iCycler. […]

MCF7 cells = experiment: TPA treatment of MCF7 cells, cell cycle analysis; conditions: breast cancer lines (MCF7), 100 nM TPA
Experimental: as §1
MCF-7 cells were differentiated with 100 nM TPA. At day 0, 1, 2, and 3 cells were collected, fixed with 70% cold ethanol and stored at −20° C. Permeabilized cells were centrifuged, washed once with PBS, and incubated for 30 minutes in propidium iodide (PI)/RNase Staining Buffer (BD Pharmingen, San Diego, Calif.) at 25° C. before flow cytometric analysis.

PARP = PARP activity assay (universal PARP chemiluminescent kit) in MDA-MB231 cells; conditions: MDA-MB231, increasing concentrations, 100 μM H2O2
Experimental: MDA-MB231 cells (2×10^6) were plated in 10-cm tissue culture dishes overnight in duplicates. The cells were exposed to the indicated concentrations of 4-Amino-1,8-naphthalimide in phosphate buffered saline (PBS) for 10 minutes on ice followed by 100 μM H2O2 for 20 minutes on ice. The cells were then washed thrice in ice cold PBS for 8-10 minutes and incubated in complete medium with the indicated concentrations of 4-Amino-1,8-naphthalimide at 37° C. The cells were then lysed and PARP activity was measured using the universal PARP chemiluminescent assay kit (Trevigen, Gaithersburg, Md.) as per the manufacturer's instructions.

BRCA1 transcript = experiment: Immunoprecipitation of HA-AGO1/miRNA complex, qRT-PCR of bound transcripts, MDA-MB231; conditions: MDA-MB231, HA-AGO1 IP, normalized to 5S rRNA
Experimental: miR-182 cDNA and miR-17 cDNA was cloned from HL60 cDNA in pcDNA3.1-Puro expression vector (Invitrogen, Carlsbad, Calif.) using the following primers: […]
MDA-MB231 cells (0.5×10^6 cells) were co-transfected with 1 μg of HA-AGO1 (pIRES-FLAG/HA vector, Addgene) and 0.5 μg of expression vector for miR-182/miR-17 or miR-scr using Lipofectamine 2000. After 2 days cells were harvested using 400 μl lysis buffer (100 mM KCl, 5 mM MgCl2, 10 mM Hepes, pH 7.0, 0.5% Nonidet P-40) containing freshly added RNase inhibitor, RNaseOUT (Invitrogen, Carlsbad, Calif.) and Protease Inhibitor Cocktail (Roche, Basel, Switzerland). After centrifugation, a 50 μl aliquot of supernatant was taken as the input for subsequent RNA extraction. The remaining supernatant was gently shaken with HA-beads (HA-probe Santa Cruz sc-7392) for 4 h at 4° C. in spin columns (Pierce Spin Columns-Screw Cap). The columns were drained, washed and the retained beads were treated with 5 U DNaseI in NT2 buffer (50 mM Tris, pH7.4, 150 mM NaCl, 1 mM MgCl2, 0.05% Nonidet P-40) for 10 minutes at 37° C., washed with NT2 buffer and then treated with Proteinase K in NT2 buffer plus 1% SDS for 30 minutes at 55° C. […] RNA was reverse transcribed (see RNA isolation) and analyzed with qPCR for enrichment of mRNA of miR-182/miR-17 predicted targets.

BRCA1 = BRCA1 expression after ectopic miRNA overexpression in HL60 cells (immunoblot, qPCR); conditions: HL60 cells transiently transfected with expression vectors, Western blot
Experimental: Analysis of the miRNAs of the miR-183 cluster was conducted using qPCR using the TaqMan MicroRNA Assay from Applied Biosystems as per the manufacturer's instructions and normalized to RNU6B snRNA. Analysis of mRNA expression was carried out with qPCR using the SYBR Green master mix (Applied Biosystems, Foster City, Calif.) according to the manufacture's manual and the BioRad iCycler. The mRNA (1 μg) was reverse transcribed with 50 ng random primers using 100 U moloney murine leukemia virus (MMLV) reverse transcriptase (Epicentre, Madison, Wis.) according to the manufacturer's manual. Results were normalized to 5SrRNA or GAPDH.
In each experiment, where Western blot analysis was done, a fraction of 0.2−0.5×10^6 cells was taken out at day, 3 or 4, post-transfection. Breast cancer cell lines were collected from 6 well tissue culture plates (0.5-1×10^6 cells). Cells lysates were prepared in RIPA buffer (150 mM NaCl, 1% NP-40, 0.5% sodium deoxycholate, 0.1% SDS, 50 mM Tris, pH 8.0). Lysates of 0.1×10^6 cells of each sample plus loading buffer were loaded on 8% SDS-PAGE gels, semi-dry transferred on nitrocellulose membrane, and probed with anti-BRCA1 antibody at a 1:500 dilution (CALBIOCHEM, MS110) and anti-tubulin antibody at a 1:10,000 dilution (Sigma, Clone B-5-1-2).

**Q.** With “12-O-tetradecanoylphorbol-13-acetate [TPA]” as the compound, how does the miR-182 expression (HL60 and K562 cells) read?
**A.** Its miR-182 expression is “induces expression of miR-182”.

**Q.** What about the cell cycle state (MCF7 cells) of the same compound?
**A.** The cell cycle state was “leads to a post-mitotic state”.

**Q.** How did the PARP activity (PARP) turn out when `Nc1ccc2c3c(cccc13)C(=O)NC2=O` [ANI, 4-Amino-1,8-naphthalimide] was run?
**A.** The PARP activity was “PARP inhibition was confirmed”.

**Q.** And the PARP activity (PARP; listed as 4-Amino-1,8-naphthalimide)?
**A.** Its PARP activity is “inhibits PARP activity”.

**Q.** For “miR-17: another miRNA predicted to target BRCA1; expression vector [reference compound]”, which “association of miRNA/AGO1 complex with BRCA1 transcript” value (BRCA1 transcript) is on record?
**A.** The value was “did not associate”.

**Q.** For “miR-183: miRNA of cluster-183, co-expressed with miR-182; expression vector (GUAUGGCACUGGUAGAAUUCACUGU; listed as Homo sapiens) [reference compound]”, which BRCA1 protein level (BRCA1) is on record?
**A.** The BRCA1 protein level was “did not affect”.
